The text below walks through data of patent US20230128194A1, “METHODS AND COMPOSITIONS TO ALTER HEPATIC GABA RELEASE TO TREAT OBESITY-RELATED CONDITIONS” (ARIZONA BOARD OF REGENTS ON BEHALF OF THE UNIVERSITY OF …, priority 2017, published 2023).

In one experiment the target is T1, GABA-T (Mus musculus, UniProt P61922).
T1 construct: from tissue; host or cells: liver slices of lean, obese and obese Kir2.1-expressing mice
In words: liver slice GABA export with GABA-T inhibitor ex vivo. The conditions noted are these: 5.3 mM. In kind it is cell-based. An excerpt: Two liver slices were taken from each mouse.

Another experiment relates to diet-induced obese mice. Description: EOS in drinking water (3 g/L) in obese mice: glucose homeostasis, body mass. The class given is in vivo, mouse. The method, then:
In a separate set of studies, an ITT was performed in obese mice to establish insulin resistance. Subsequently, EOS was provided ad libitum in the water (3 g/L) for 4 days. An OGTT and ITT were performed on days 3 and 4 of treatment, respectively. The water was then removed, and an ITT was performed 2 weeks later to establish the timing of restoration of insulin resistance after drug removal.
Oral glucose (2.5 g/kg; 0.1 mL/10 g body weight; Chem-Impex Int'l Inc., Wood Dale, Ill.) was given to 4 hour fasted individually housed mice. All glucose tolerance tests began at […] and glucose was measured in whole blood, collected from the tail vein, by glucometer (Manufacture #D2ASCCONKIT, Bayer, Leverkusen, Germany) at 0, 15, 30, 60, 90, and 120 minutes after glucose gavage. Blood for serum insulin (oral glucose stimulated insulin secretion; OGSIS) and glucose determination was collected from the tail vein 15 minutes following glucose administration.
Intraperitoneal insulin (0.5 U/kg; 0.1 mL/10 g body weight; Sigma Aldrich, St. Louis, Mo.) was given to 4 hour fasted individually housed mice. All insulin tolerance tests began at […] and glucose was measured in whole blood, collected from the tail vein, by glucometer (Manufacture #D2ASCCONKIT, Bayer, Leverkusen, Germany) at 0, 30, 60, 90, and 120 minutes after insulin injection.

Experiment [1] relates to high fat diet-induced obese mice. Description: muscle cGMP content (ELISA). In kind it is in vivo, mouse. The conditions noted are these: day 5. The method, then:
On the fifth day of EOS or PBS treatment, mice were sacrificed and the quadricep and soleus tissues were collected and frozen on dry ice. Prior to analysis, frozen quadricep were powdered using a liquid nitrogen cooled mortar and pestle to obtain homogenous muscle samples. 15-20 mg of quadricep and the entire soleus tissue (6-12 mg) were homogenized in 200 μL of a 5% trichloroacetic acid solution. Following 15 minutes of centrifugation at 3,000×g at 4° C., supernatant was transferred to a fresh tube for analysis of muscle cGMP by enzyme-linked immunosorbent assay (ELISA; ADI-900-164, Enzo Life Sciences, Farmingdale, N.Y.).

Structures are written as SMILES.

T1 sequence (P61922 29-500): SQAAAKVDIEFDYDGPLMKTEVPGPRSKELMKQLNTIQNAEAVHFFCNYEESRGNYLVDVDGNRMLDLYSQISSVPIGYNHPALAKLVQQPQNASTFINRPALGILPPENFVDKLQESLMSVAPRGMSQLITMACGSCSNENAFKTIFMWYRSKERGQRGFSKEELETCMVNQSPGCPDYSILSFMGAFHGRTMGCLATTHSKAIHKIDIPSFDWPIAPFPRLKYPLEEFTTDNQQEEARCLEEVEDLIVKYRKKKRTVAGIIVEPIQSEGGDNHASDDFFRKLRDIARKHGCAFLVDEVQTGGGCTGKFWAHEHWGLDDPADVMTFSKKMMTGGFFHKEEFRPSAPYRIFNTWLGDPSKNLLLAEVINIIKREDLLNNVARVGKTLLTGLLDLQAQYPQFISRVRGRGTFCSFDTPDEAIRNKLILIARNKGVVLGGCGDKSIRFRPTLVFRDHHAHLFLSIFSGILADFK

For the compound `NCCOS(=O)(=O)O` [EOS, ethanolamine-O-sulfate], the GABA export result on GABA-T (obese Kir2.1 expressing liver slices) was “decreased”. The GABA export entry at GABA-T (obese control liver slices) was “decreased”. Besides, the response after withdrawal entry with diet-induced obese mice (2 weeks without EOS in the drinking water) is listed as “washed out”. In addition, in the experiment with diet-induced obese mice (diet-induced obese mice, 3 g/L in drinking water, 7 weeks), the body mass entry is “dramatically decreased”. Also, in the experiment on diet-induced obese mice (obese mice, 3 g/L in drinking water, 4 days), the “measures of glucose homeostasis” value is on record as “similarly improved”. In experiment [1], the cGMP in quad entry is reported as “no effect” and the “increase of cGMP in the soleus” value is reported as 59%.
